Assay type in all cases: cell-based, human
Data set [1] relates to wild type KRAS. Briefly: Indel frequencies at the endogenous target sequences (T7E1 / deep sequencing) after ADGN/Cas9 mRNA/gRNA transfection. The note with it: deep sequencing, 72 hours after transfection, Cas9 mRNA 0.1 μg, gRNA 0.2 μg. Here is the method: (§1) Complex formation with mRNA:gRNA: ADGN peptide/mRNA/gRNA particles were prepared at a 20:1:1 molar ratio. ADGN/Cas9mRNA/sgRNA complexes were prepared at a 20/1/1 molar ratio with 0.5 μg mRNA: 1.5 μg sgRNA and 5% Glucose or DMEM (example for 96 well plates). […] Premixed Cas9 mRNA/gRNA were prepared in sterile water at room temperature in a glass vial (1-4 ml). ADGN-peptide solution was added dropwise (1 drop/sec) under magnetic agitation at 400 rpm to obtain a 1:2 ratio, and incubated for 30 min at room temperature or 37° C. Just before transfection, 150 μl Glucose or DMEM was added and the solution was mixed under magnetic agitation at 400 rpm for 1 minute. Then the solution was incubated for 5 min at 37° C. Then the complexes was ready for cell transfection or IV administration. Prior to IV administration, complexes were diluted in sucrose 5% solution.
(§2) Transfection protocol. The following protocols are reported for 24/48/96 well plate format transfection. Cells should be trypsinized and seeded a day prior transfection Cells were cultured in Dulbecco's Modified Eagle's Medium (DMEM), supplemented with 2 mM glutamine, 1% antibiotics (streptomycin 10,000 μg/mL, penicillin, 10,000 IU/mL) and 10% (w/v) foetal calf serum (FCS), at 37° C. in a humidified atmosphere containing 5% CO2. 96 well plates seeded with 50,000 cells, the day prior transfection, grown to 60-80% confluence and set up to be at around 70% confluence at the day of transfection. Before transfection, cells are washed twice with DMEM (without FBS and pen/strep) (100 μl/well). Cells were then overlaid with 25 μl of complex solution, mixed gently and incubated for 10 min at 37° C.+5% CO2. 50 μl of fresh DMEM (without FBS and Antibiotics) was added and cells were incubated for 2 h at 37° C.+5% CO2 (time of exposure can be adjusted based on sensitivity of the cells). 250 μL of DMEM (containing 10% FCS and 1% antibiotics) were then added without removing the overlay of ADGN peptide/mRNA complexes. Cells were returned to the incubator (37° C., 5% CO2) and analyzed 48 hours to 72 hours post transfection.
(§3) Nine different gRNAs targeting KRAS 35G>T mutant G12V (gRNA35T1, gRNA35T2, gRNA35T3, gRNA35T4, gRNA35T5, gRNA35T6, gRNA35T7, gRNA35T8 and gRNA35T9 (see FIG. 18)) were evaluated on SW403 and SW480 cancer cells harboring G12V KRAS mutation. Cas9 mRNA (0.15 μg) and gRNA (0.2 μg) were associated with ADGN-peptides as reported in experimental procedure. SW403, SW480 and HT-29 cells were cultured in 48 well plate format and treated with free mRNACas9-gRNA, or ADGN-100/mRNACas9:gRNA complex. Indel frequencies at the endogenous target sequences was evaluated 72 hours after transfection by either T7E1 method and by deep sequencing. Cell proliferation was analyzed over a period of 5 days using CellTiter Glow kits on GlowMax (Promega).
(§4) Nine different gRNAs targeting KRAS 35G>A mutant G12D (gRNA35A1, gRNA35A2, gRNA35A3, gRNA35A4, gRNA35A5, gRNA35A6; gRNA35A7, gRNA35A8, gRNA35A9) were evaluated on LS513, Panc1, PK-45H, and PK1 cancer cells harboring G12D KRAS mutation. Cas9 mRNA (0.1 μg) and gRNA (0.2 μg) were associated with ADGN-peptide at molar ratio 20/1 (peptide/nucleic acid). LS513, Panc1, PK-45H, PK1, HS-68 and HT-29 cells were cultured in 48 well plate format and treated with free mRNACas9-gRNA, or ADGN/mRNACas9:gRNA complex. Indel frequencies at the endogenous target sequences was evaluated 72 hours after transfection by either T7E1 method or deep sequencing. Cell proliferation was analyzed over a period of 5 days using CellTiter Glow kits on GlowMax (Promega).

In data set [2] the test system is KRAS 35G>A mutant G12D. Described as above. The note with it: for disruption of G12D mutant KRAS (FIG. 2A): G12D cancer cells vs wild type KRAS cells (HT29 or HS-68); for indel frequencies: deep sequencing, 72 hours after transfection, Cas9 mRNA 0.1 μg, gRNA 0.2 μg. The method, then: as §1, §2, §4
(§5) In order to confirm the specificity of sgRNAs targeting G12V, G12C or G12D KRAS mutation, gRNA35T3 targeting G12V, gRNA34T6 targeting G12C, and gRNA35A5 targeting G12D were evaluated on a large panel of cancer cells harboring different KRAS mutations including SW403, SW480, PANC1, PK-45H, PK-1, MIA-PACA, H23, H358, HT-29, HS-68 and LS513. Cas9 mRNA (0.2 μg) and gRNA (0.4 μg) were associated with ADGN peptide at molar ratio 20/1 (peptide/nucleic acid). Cells were cultured in 48 well plate format and treated with free mRNACas9-gRNA, or ADGN/mRNACas9:gRNA complex. Indel frequencies at the endogenous target sequences was evaluated 72 hours after transfection by either T7E1 method and cell proliferation was analyzed over a period of 5 days using CellTiter Glow kits on GlowMax (Promega).

The subject of data set [3] is KRAS 34G>T mutant G12C. The description is as above. Conditions: Mia-PACA, H23, H358 vs HT29 and PANC1 cells. Here is the method: as §1, §2
Eight different gRNAs targeting KRAS 34G>T mutant G12C (gRNA34T1, gRNA34T2, gRNA34T3, gRNA34T4, gRNA34T5, gRNA34T6, gRNA34T7 and gRNA34T8) were evaluated on MIA-PACA, H23, H358, H29 and PANC1 cells. Cas9 mRNA (0.1 μg) and gRNA (0.2 μg) were associated with ADGN peptide at molar ratio 20/1 (peptide/nucleic acid). MIA-PACA, H23, H358, PANC1 and HT29 cells were cultured in 48 well plate format and treated with free mRNACas9-gRNA, or ADGN/mRNACas9:gRNA complex. Indel frequencies at the endogenous target sequences was evaluated 72 hours after transfection by either T7E1 method or deep sequencing. Cell proliferation was analyzed over a period of 5 days using CellTiter Glow kits on GlowMax (Promega).
as §5

Data set [4] deals with PANC1, PK1, LS513 and PK-45H cells. Put plainly: Cell proliferation over 5 days (CellTiter Glow). The note with it: PANC1, PK1, LS513, PK-45H vs HT29 or HS-68 cells harboring KRAS WT. The method, then:
as §2, §4

The subject of data set [5] is KRAS 35G>T mutant G12V. Briefly: Indel frequencies at the endogenous target sequences (T7E1 / deep sequencing) after ADGN/Cas9 mRNA/gRNA transfection. The note with it: SW403, SW480 vs wild type KRAS HT29 cells; T7E1. The method, then:
as §1, §2, §3, §5

On to “GCT GAT GGC GTA GGC AA (guide GCTGATGGCGTAGGCAA; chemistry not given here) [gRNA35A9, sgRNA target KRAS G12D mutation (35G>A); PAM GAG]”, for which the indel frequencies in data set [1] (HS68 cells (WT KRAS)) amounted to 12 ± 1%; in data set [1] (HT-29 cells (WT KRAS)), 17 ± 3%; in data set [2] (LS513 cells), 21 ± 3%; in data set [2] (PANC1 cells), 25 ± 3%; in data set [2] (PK1 cells), 34 ± 1%; in data set [2] (PK-45H cells), 18 ± 2%. In addition, the “disruption of G12D mutant KRAS (FIG. 2A)” value in data set [2] is “induced efficient disruption of G12D mutant KRAS”.
Turning to “GCT TGT GGC GTA GGC AA (guide GCTTGTGGCGTAGGCAA; sgRNA, chemical modifications not given here, further chemistry not given here) [gRNA34T7, sgRNA target KRAS G12C mutation (34G>T); PAM GAG]”, in data set [3], the “indel editing and disruption of G12C mutant KRAS (FIG. 3A)” value (shortened to “indel editing and disruption … (FIG. 3A)”) is “inefficient or less specific affecting wild type KRAS”.
As for “TGA TGG CGT AGG CAA GAGT (guide TGATGGCGTAGGCAAGAGT; chemistry not given here) [gRNA35A4, sgRNA target KRAS G12D mutation (35G>A); PAM GCC]”, the indel frequencies in data set [1] (HS68 cells (WT KRAS)) worked out at 5 ± 0.7%; in data set [1] (HT-29 cells (WT KRAS)), 2 ± 1%; in data set [2] (LS513 cells) it was 5 ± 2%; in data set [2] (PANC1 cells) it was 4 ± 1%; in data set [2] (PK1 cells), 9 ± 0.1%; in data set [2] (PK-45H cells), 7 ± 2%.
With “AGC TTG TGG CGT AGG CAA (guide AGCTTGTGGCGTAGGCAA; chemistry not given here) [gRNA34T2, sgRNA target KRAS G12C mutation (34G>T); PAM GAG]”, the “indel editing and disruption … (FIG. 3A)” value in data set [3] is on record as “inefficient or less specific affecting wild type KRAS”.
As for “GTAGTTGGAGCTGATGGCGT (guide GTAGTTGGAGCTGATGGCGT; chemistry not given here) [gRNA35A7, sgRNA target KRAS G12D mutation (35G>A); PAM AGG]”, the indel frequencies in data set [1] (HS68 cells (WT KRAS)) was determined as 4 ± 0.4%; in data set [1] (HT-29 cells (WT KRAS)), 7 ± 2%; in data set [2] (LS513 cells), 24 ± 2%; in data set [2] (PANC1 cells) it was 47 ± 1%; in data set [2] (PK1 cells) it was 31 ± 2%; in data set [2] (PK-45H cells) it was 35 ± 0.5%. In addition, the “inhibition of proliferation or survival (FIG. 2B)” value in data set [4] was “specifically inhibit proliferation or survival of PANC1, PK1, LS513 and PK-45H cells”. Moreover, the “disruption of G12D mutant KRAS (FIG. 2A)” value in data set [2] is on record as “induced efficient disruption of G12D mutant KRAS”.
For the sequence “TTG TGG TAG TTG GAG CTG A (guide TTGTGGTAGTTGGAGCTGA; chemistry not given here) [gRNA35A8, sgRNA target KRAS G12D mutation (35G>A); PAM TGG]”, the indel frequencies was found to be 6 ± 0.1% in data set [1] (HS68 cells (WT KRAS)); 2 ± 0.2% in data set [1] (HT-29 cells (WT KRAS)); 7 ± 1% in data set [2] (LS513 cells); 9 ± 2% in data set [2] (PANC1 cells); 18 ± 1% in data set [2] (PK1 cells); 11 ± 1% in data set [2] (PK-45H cells).
For the sequence “TTG TGG TAG TTG GAG CTG T (guide TTGTGGTAGTTGGAGCTGT; chemistry not given here) [gRNA35T7, sgRNA target KRAS G12V mutation (c.35G>T); PAM TGG]”, the “indel editing and disruption of G12V mutant KRAS (FIG. 1A)” value in data set [5] is “specifically induced indel editing and efficient disruption”.
As to “AGC TGA TGG CGT AGG CAA (guide AGCTGATGGCGTAGGCAA; chemistry not given here) [gRNA35A3, sgRNA target KRAS G12D mutation (35G>A); PAM GAG]”, the indel frequencies in data set [1] (HS68 cells (WT KRAS)) is on record as 4 ± 1%; in data set [1] (HT-29 cells (WT KRAS)), 1 ± 0.5%; in data set [2] (LS513 cells), 9 ± 1%; in data set [2] (PANC1 cells), 7 ± 1%; in data set [2] (PK1 cells), 2 ± 0.5%; in data set [2] (PK-45H cells), 4 ± 1%.
Regarding “GGTAGTTGGAGCTTGTGGCG (guide GGTAGTTGGAGCTTGTGGCG; chemistry not given here) [gRNA34T4, sgRNA target KRAS G12C mutation (34G>T); PAM TAG]”, the “indel editing and disruption … (FIG. 3A)” value in data set [3] is “inefficient or less specific affecting wild type KRAS”.
In the case of “CTT GTG GCG TAG GCA AGAGT (guide CTTGTGGCGTAGGCAAGAGT; sgRNA, chemical modifications not given here, further chemistry not given here) [gRNA34T8, sgRNA target KRAS G12C mutation (34G>T); PAM GCC]”, the “indel editing and disruption … (FIG. 3A)” value in data set [3] is recorded as “inefficient or less specific affecting wild type KRAS”.

(Values after patent publication US20230167437A1, “COMPOSITIONS FOR TREATING CANCER WITH KRAS MUTATIONS AND USES THEREOF” (Aadigen, LLC, priority 2020, published 2023).)
